Experimental findings from publication PMC6407917, “Identification of GSK3186899/DDD853651 as a Preclinical Development Candidate for the Treatment of Visceral Leishmaniasis” (Journal of Medicinal Chemistry, 2018) are described below.

Targets include PRKAB1 (Homo sapiens, UniProt Q9Y478); NEK7 (Homo sapiens, UniProt Q8TDX7); ACVR1B (Homo sapiens, UniProt P36896); DAPK1 (Homo sapiens, UniProt P53355); BRAF (Homo sapiens, UniProt P15056); RPS6KB1 (Homo sapiens, UniProt P23443); PRKAR2B (Homo sapiens, UniProt P31323); CSNK2B (Homo sapiens, UniProt P67870); CLK1 (Homo sapiens, UniProt P49759); LATS1 (Homo sapiens, UniProt O95835); CSNK1D (Homo sapiens, UniProt P48730); PIP4K2B (Homo sapiens, UniProt P78356); FGFR1 (Homo sapiens, UniProt P11362); EGFR (Homo sapiens, UniProt P00533); PTK2 (Homo sapiens, UniProt Q05397); PKN2 (Homo sapiens, UniProt Q16513); TAOK1 (Homo sapiens, UniProt Q7L7X3); PRKD1 (Homo sapiens, UniProt Q15139); SNRK (Homo sapiens, UniProt Q9NRH2); NEK2 (Homo sapiens, UniProt P51955); GSK3A (Homo sapiens, UniProt P49840).

Holding throughout (assay): biochemical
Holding throughout (set-up): species or system HEK293/K-562/placenta mixed human extract; Kinobeads chemoproteomic competition binding, quantified by TMT LC-MS/MS, dose response up to 20 uM

EGFR, sequence (P00533 whole entry): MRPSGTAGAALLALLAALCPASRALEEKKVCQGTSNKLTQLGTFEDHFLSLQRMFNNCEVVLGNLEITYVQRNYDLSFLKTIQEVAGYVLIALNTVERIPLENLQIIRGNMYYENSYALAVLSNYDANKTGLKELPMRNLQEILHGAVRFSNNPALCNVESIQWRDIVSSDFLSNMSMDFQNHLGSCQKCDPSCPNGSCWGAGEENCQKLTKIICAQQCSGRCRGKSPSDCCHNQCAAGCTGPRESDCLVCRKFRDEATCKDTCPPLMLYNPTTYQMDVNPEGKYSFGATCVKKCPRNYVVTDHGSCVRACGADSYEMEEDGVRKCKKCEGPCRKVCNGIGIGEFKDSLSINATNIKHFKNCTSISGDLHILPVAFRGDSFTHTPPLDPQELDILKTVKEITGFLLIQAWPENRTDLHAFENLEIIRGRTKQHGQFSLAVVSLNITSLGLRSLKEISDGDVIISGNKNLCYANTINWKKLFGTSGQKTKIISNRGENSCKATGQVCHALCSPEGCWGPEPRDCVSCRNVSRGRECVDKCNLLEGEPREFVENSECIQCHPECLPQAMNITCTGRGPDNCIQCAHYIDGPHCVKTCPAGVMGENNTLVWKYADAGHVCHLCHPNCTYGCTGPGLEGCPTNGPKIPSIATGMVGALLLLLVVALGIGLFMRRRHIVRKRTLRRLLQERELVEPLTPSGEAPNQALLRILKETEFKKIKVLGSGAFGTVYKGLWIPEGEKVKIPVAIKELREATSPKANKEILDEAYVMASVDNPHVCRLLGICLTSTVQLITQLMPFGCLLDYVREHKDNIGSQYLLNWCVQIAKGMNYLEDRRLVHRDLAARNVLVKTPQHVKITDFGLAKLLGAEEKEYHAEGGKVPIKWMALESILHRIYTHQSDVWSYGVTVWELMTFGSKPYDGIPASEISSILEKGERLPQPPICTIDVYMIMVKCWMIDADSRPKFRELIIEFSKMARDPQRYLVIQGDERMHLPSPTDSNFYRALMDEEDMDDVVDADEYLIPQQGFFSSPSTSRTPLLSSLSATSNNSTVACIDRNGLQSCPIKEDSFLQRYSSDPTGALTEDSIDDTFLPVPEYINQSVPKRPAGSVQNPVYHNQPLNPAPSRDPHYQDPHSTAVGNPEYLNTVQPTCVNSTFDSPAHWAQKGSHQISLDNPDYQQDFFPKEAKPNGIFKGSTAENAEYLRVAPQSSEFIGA
RPS6KB1, sequence (P23443 whole entry): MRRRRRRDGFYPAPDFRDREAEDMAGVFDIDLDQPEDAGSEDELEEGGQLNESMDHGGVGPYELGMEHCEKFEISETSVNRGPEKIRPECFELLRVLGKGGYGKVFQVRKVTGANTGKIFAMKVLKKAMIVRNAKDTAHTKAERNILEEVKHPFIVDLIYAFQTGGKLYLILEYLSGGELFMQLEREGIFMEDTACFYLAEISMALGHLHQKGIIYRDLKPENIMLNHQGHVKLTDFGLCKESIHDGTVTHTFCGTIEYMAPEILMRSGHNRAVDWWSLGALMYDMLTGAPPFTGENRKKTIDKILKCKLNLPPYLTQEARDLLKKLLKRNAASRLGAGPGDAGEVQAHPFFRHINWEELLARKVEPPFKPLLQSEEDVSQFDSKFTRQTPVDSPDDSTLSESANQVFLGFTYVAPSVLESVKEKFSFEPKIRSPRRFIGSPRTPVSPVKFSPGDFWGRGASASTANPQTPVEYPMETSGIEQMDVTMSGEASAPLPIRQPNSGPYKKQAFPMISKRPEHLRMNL
CSNK2B, sequence (P67870 whole entry): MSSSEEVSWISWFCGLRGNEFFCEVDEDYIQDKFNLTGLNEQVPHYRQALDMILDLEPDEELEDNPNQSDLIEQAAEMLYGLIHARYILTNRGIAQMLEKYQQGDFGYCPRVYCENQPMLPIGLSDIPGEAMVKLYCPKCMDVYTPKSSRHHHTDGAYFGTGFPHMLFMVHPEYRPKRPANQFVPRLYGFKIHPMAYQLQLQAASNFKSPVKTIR
PRKAR2B, sequence (P31323 whole entry): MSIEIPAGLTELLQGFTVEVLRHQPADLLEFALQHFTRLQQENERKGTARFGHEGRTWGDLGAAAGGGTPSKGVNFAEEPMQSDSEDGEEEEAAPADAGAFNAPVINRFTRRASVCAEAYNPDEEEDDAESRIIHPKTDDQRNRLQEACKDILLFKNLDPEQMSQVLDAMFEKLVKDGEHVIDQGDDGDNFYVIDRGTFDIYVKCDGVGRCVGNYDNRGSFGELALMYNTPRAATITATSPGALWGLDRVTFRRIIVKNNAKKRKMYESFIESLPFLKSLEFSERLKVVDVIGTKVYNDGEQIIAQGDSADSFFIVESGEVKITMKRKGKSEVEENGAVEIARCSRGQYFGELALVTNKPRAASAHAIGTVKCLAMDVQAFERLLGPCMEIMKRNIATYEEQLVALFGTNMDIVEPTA
SNRK, sequence (Q9NRH2 whole entry): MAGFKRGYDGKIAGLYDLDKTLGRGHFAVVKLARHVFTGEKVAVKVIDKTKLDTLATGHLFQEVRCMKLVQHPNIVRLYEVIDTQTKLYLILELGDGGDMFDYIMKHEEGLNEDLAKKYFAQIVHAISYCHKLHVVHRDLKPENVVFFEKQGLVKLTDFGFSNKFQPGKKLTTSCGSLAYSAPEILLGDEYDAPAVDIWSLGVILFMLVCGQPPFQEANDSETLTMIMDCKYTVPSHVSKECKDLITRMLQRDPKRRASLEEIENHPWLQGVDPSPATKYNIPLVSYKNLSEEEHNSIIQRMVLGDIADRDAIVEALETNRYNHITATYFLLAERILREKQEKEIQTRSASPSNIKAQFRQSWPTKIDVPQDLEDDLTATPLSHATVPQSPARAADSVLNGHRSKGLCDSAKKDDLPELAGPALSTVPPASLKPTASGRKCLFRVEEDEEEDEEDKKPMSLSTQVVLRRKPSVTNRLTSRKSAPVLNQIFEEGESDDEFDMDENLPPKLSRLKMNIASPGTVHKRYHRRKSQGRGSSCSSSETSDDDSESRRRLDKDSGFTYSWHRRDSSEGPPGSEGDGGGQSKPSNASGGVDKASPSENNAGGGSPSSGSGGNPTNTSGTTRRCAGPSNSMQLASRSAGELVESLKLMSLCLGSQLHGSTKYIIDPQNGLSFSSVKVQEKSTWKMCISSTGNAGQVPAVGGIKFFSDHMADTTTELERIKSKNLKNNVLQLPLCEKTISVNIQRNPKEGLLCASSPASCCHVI
PRKAB1, sequence (Q9Y478 whole entry): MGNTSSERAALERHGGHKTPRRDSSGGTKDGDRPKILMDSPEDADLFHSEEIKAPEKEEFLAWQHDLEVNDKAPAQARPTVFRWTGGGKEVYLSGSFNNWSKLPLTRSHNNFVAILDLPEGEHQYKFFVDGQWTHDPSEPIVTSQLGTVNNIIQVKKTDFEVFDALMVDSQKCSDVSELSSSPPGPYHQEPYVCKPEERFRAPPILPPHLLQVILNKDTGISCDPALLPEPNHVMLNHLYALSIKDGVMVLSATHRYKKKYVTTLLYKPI
FGFR1, sequence (P11362 whole entry): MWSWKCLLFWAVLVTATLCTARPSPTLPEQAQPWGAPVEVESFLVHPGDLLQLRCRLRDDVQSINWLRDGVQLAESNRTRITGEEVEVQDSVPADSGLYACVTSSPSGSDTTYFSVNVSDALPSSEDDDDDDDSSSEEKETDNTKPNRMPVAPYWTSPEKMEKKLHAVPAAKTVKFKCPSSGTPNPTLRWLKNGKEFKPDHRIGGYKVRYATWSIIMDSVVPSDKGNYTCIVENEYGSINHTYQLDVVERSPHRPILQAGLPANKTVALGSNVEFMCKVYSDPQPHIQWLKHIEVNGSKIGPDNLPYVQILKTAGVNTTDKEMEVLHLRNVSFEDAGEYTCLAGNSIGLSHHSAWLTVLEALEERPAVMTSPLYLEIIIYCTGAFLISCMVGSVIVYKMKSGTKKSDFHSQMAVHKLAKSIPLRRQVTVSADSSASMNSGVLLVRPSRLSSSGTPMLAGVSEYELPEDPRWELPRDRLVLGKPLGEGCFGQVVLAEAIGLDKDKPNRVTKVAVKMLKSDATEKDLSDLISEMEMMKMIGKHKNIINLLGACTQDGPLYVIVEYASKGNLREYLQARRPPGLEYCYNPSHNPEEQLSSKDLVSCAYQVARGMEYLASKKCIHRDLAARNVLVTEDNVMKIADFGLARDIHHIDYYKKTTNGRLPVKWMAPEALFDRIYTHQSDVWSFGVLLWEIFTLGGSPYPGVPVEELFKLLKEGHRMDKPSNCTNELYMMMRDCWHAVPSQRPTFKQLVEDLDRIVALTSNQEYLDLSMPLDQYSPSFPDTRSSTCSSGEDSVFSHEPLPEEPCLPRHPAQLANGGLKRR
NEK7, sequence (Q8TDX7 whole entry): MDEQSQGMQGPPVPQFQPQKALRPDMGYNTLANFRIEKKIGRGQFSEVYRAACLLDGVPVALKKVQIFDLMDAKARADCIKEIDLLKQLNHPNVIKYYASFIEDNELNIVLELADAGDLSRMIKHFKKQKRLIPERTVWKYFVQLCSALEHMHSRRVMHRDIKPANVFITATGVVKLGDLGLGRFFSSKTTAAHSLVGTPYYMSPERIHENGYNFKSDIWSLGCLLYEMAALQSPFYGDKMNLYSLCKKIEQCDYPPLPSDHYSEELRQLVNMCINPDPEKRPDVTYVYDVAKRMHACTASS
GSK3A, sequence (P49840 whole entry): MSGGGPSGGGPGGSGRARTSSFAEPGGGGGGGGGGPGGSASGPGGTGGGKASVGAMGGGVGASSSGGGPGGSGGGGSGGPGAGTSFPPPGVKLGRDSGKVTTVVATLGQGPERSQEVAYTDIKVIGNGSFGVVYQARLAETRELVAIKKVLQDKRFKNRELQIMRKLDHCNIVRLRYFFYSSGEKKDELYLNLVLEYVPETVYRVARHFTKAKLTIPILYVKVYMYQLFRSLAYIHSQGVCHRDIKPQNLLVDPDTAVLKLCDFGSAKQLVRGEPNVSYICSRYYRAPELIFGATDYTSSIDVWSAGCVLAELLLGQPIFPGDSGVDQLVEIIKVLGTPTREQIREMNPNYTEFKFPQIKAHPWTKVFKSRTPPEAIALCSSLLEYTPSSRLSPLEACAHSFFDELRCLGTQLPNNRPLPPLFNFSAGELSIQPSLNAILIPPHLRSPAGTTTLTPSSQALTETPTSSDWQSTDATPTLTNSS

In general, IC50 refers to the point on the concentration scale where inhibition reaches its midpoint. In the case of `COc1ccccc1-c1n[nH]c2nc(N[C@H]3CC[C@H](NS(=O)(=O)CCC(F)(F)F)CC3)nc(OC)c12` [compound 31, 3,3,3-Trifluoro-N-(trans-4-((4-methoxy-3-(2-methoxyphenyl)-1H-pyrazolo[3,4-d]pyrimidin-6-yl)amino)cyclohexyl)propane-1-sulfonamide], the IC50 on PRKAB1, on NEK7, at ACVR1B, at DAPK1, on BRAF and at RPS6KB1 was at least 20 µM in each case. Besides, the IC50 was at least 20 µM at PRKAR2B; at least 20 µM at CSNK2B; at least 20 µM on CLK1; at least 20 µM on LATS1; at least 20 µM at CSNK1D; 9.4 µM on PIP4K2B. In addition, the IC50 at FGFR1 was at least 20 µM; on EGFR it was at least 20 µM; on PTK2 it was at least 20 µM; at PKN2, at least 20 µM; on TAOK1, 1.5 µM; at PRKD1 it was at least 20 µM. The IC50 at SNRK, at NEK2 and on GSK3A was at least 20 µM in each case.
